Earlier results in patent publication US20120283223A1, “CEREBRAL NERVE CELL NEOGENESIS AGENT” (priority 2010, published 2012).

System: cerebral nerve cells
Conditions: in 3 to 4 weeks; Non-Patent Literature 1

CNCCC(Oc1ccc(C(F)(F)F)cc1)c1ccccc1 (stereo not shown) [fluoxetine]
number of cerebral nerve cells: increases
